Values of other authors in article PMC5348030 (Nature chemical biology, 2016).

Tested on: HIV integrase

## Cc1nnc(C(=O)NC(C)(C)c2nc(C(=O)NCc3ccc(F)cc3)c(O)c(=O)n2C)o1 [raltegravir]
  residence time on its target: 4.8 min
